System: not given
Assay: not given
Settings: not given

SMILES	melting point [°C]
N=C(N)c1ccc(NC(C(=O)O)c2cccc(OCc3ccccc3)c2)cc1 (racemic) [Example 39.4, (RS)-(3-benzyloxy-phenyl)-(4-carbamimidoyl-phenylamino)-acetic acid]	306
[H]/N=C(\NO)c1ccc(NC(C(=O)OC)c2cc(OC)c(OC)cc2OCc2cccc(C(=O)OC)c2)cc1 (racemic) [Example 52.3, methyl (Z)-(RS)-3-(2-{[4-(N-hydroxycarbamimidoyl)-phenylamino]-methoxycarbonyl-methyl}-4,5-dimethoxy-phenoxymethyl)-benzoate]	173
CCOc1ccc(OCCCCC(=O)O)c(C(Nc2ccc(C(=N)N)cc2)C(=O)O)c1 (racemic) [Example 45.4, (RS)-5-{2-[(4-carbamimidoyl-phenylamino)-carboxy-methyl]-4-ethoxy-phenoxy}-pentanoic acid]	260
CCCc1cc(C)c(OCCO)c(C(Nc2ccc(C(=N)N)cc2)C(=O)O)c1 (racemic) [Example 58.5, (RS)-(4-carbamimidoyl-phenylamino)-[2-(2-hydroxy-ethoxy)-3-methyl-5-propyl-phenyl]-acetic acid]	230
C=CCc1cc(C)cc(C(Nc2ccc(C(=N)N)cc2)C(=O)O)c1OCCO (racemic) [Example 57.4, (RS)-[3-allyl-2-(2-hydroxy-ethoxy)-5-methyl-phenyl]-(4-carbamimidoyl-phenylamino)-acetic acid]	228
CCCc1cc(C)cc(C(Nc2ccc(C(=N)N)cc2)C(=O)O)c1OCCO (racemic) [Example 56.5, (RS)-(4-carbamimidoyl-phenylamino)-[2-(2-hydroxy-ethoxy)-5-methyl-3-propyl-phenyl]-acetic acid]	240

Other lines, results leading:

melting point [°C]	SMILES
266	CCOc1ccc(OCC(N)=O)c(C(Nc2ccc(C(=N)N)cc2)C(=O)O)c1 (racemic) [Example 48.5, (RS)-(4-carbamimidoyl-phenylamino)-(2-carbamoylmethoxy-5-ethoxy-phenyl)-acetic acid]
223	N=C(N)c1ccc(NC(C(=O)O)c2ccccc2OCC(=O)O)cc1 (racemic) [Example 40.3, (RS)-(4-carbamimidoyl-phenylamino)-(2-carboxymethoxy-phenyl)-acetic acid]
275	CCOc1ccc(OCCOC)c(C(Nc2ccc(C(=N)N)cc2)C(=O)O)c1 (racemic) [Example 46.4, (RS)-(4-carbamimidoyl-phenylamino)-[5-ethoxy-2-(2-methoxy-ethoxy)-phenyl]-acetic acid]
213	COc1ccc(OCC(=O)O)c(C(Nc2ccc(C(=N)N)cc2)C(=O)O)c1 (racemic) [Example 43.4, (RS)-(4-carbamimidoyl-phenylamino)-(2-carboxymethoxy-5-methoxy-phenyl)-acetic acid]
310	COc1ccc(OC)c(C(Nc2ccc(C(=N)N)cc2)C(=O)O)c1 (racemic) [Example 41.4, (RS)-(4-carbamimidoyl-phenylamino)-(2,5-dimethoxy-phenyl)-acetic acid]

Target: T1, factor VIIa/tissue factor complex (Homo sapiens, UniProt P08709)
T1 construct: 9 nM of soluble factor VIIa
Assay: inhibition of the amidolytic activity of factor VIIa/tissue factor complex (chromogenic peptide substrate)
Assay type: biochemical
Settings: 26 nM tissue factor, 9 nM soluble factor VIIa, 8 mM calcium chloride, substrate Chromozym-tPA, pH 7.5, room temperature
Protocol: The measurements were carried out on microtitre plates at room temperature. To this end, 100 μl of a solution of 26 nM of tissue factor, 9 nM of soluble factor VIIa and 8 mM of calcium chloride were added to 25 μl of a solution of the inhibitor in a buffer [pH 7.5, 100 mM, comprising 0.14M NaCl, 0.1M N-(2-hydroxyethyl)piperazine-N′-(2-ethanesulphonic acid) (HEPES), 0.5 mg/l of fatty-acid-free BSA (bovine serum albumin) and 0.05% NaN3] in each well of the plate. After an incubation time of 15 minutes the reaction was started by the addition of 50 μl of chromogenic substrate Chromozym-tPA (3.5 mM, MeSO2-D-Phe-Gly-Arg-paranitroanilide) and the hydrolysis of the substrate was followed spectrophotometrically on a kinetic microtitre plate reader over 10 minutes. Using the plot of the inhibition curves, the Ki values were determined according to the method described in Biochem. J. 55, 1953, 170–171. The results will be evident from the following Table (Ki in μM/l): […]

T1 sequence (P08709 213-466 limits assumed): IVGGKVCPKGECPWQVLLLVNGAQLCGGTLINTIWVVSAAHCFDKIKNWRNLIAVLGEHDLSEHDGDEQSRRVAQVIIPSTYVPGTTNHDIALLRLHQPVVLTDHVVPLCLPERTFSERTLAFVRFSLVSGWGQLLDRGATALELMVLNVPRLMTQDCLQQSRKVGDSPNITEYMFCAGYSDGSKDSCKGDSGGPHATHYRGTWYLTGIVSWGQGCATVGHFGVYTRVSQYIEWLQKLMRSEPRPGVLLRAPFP
T1 sequence (P08709 61-212 partner limits assumed): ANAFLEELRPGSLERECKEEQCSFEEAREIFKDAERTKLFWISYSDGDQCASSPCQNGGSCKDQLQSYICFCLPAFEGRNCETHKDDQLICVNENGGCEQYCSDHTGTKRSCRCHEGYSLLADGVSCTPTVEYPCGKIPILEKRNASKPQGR
T1 sequence (P13726 33-295 partner): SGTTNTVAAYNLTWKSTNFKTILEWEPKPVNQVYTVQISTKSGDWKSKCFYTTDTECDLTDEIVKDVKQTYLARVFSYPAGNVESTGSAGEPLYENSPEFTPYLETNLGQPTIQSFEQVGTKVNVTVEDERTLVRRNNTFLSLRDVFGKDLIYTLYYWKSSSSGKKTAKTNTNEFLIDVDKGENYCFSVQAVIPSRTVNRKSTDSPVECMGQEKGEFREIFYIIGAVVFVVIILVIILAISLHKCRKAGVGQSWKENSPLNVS

Ki [nM]	SMILES
38.5	COc1cc(OCC(=O)O)c(C(Nc2ccc(C(=N)N)cc2)C(=O)O)cc1OC (racemic) [Example 17, (RS)-(4-carbamimidoyl-phenylamino)-(2-carboxymethoxy-4,5-dimethoxy-phenyl)-acetic acid]
84	COc1cc(OC)c(OCC(=O)O)c(C(Nc2ccc(C(=N)N)cc2)C(=O)O)c1 (racemic) [Example 15, (RS)-(4-carbamimidoyl-phenylamino)-(2-carboxymethoxy-3,5-dimethoxy-phenyl)-acetic acid]
